US4087561A, “Control of nitrosamine formation in nitride cured meat with 1,2,3,4-tetrahydro-quinoline compounds” (Canada Packers Limited, priority 1975, dated 1978)

Tests used:
[1] = Volatile nitrosamine content of cook-out fat from fried nitrite-cured bacon slices streaked with test compound in soya oil; details: for nitrosamine content of the fried meat: inferred from cook-out fat content; for nitrosamine content of cook-out fat from the test sample: 100 ppm on bacon slices, control sample 15 ppb
Method: A portion of the foregoing product was dissolved in winterized soya oil to provide a 4.5% concentration and the resulting solution was streaked on bacon slices, which had undergone a conventional nitrite cure and plant processing, in quantities providing levels of 1,2,3,4-tetrahydro-2,2,4-trimethyl-6-ethoxyquinoline of from 5 ppm to 100 ppm in the meat. Control slices of bacon were streaked with the oil alone. The bacon slices were fried under standardized conditions and the cook-out fat was analyzed for volatile nitrosamine content.
Since the analytical means available are not accurate below about 3 ppb (parts per billion), it will be seen that at levels of about 20 parts per million and greater of the test compound in the meat the amount of nitrosamines in the cook-out fat was reduced below the accurately determinable level.
A portion of the 1,2,3,4-tetrahydro-2,4-diethyl-2-methyl-6-methoxyquinolineprepared as above was dissolved in winterized soya oil (4.5% concentration) and the resulting solution was streaked on nitrite cured, plant processed bacon slices at a level of 100 ppm in the meat. Control slices of bacon received oil alone. The bacon slices were fried and the cook-out fat was analyzed for volatile nitrosamine content as in Example 1.

[2] = cited from earlier work
[3] = Volatile nitrosamines in cook-out fat of fried bacon cured with pumping pickle containing test compound; details: 150 mg = 50 ppm, in Tween 60, control sample 21 ppb
Excerpt: This example is representative of the use of compounds of the general formula given above in a pumping pickle.
A single pork belly (13.2 lb) was cut along the short dimension into two equal portions. Production pickle (300g), of a composition which has been generally described above, was pumped into one portion to be used as control. The other half was pumped with the same production pickle (300g) to which 1,2,3,4-tetrahydro-2,2,4-trimethyl-6-ethoxyquinoline, prepared as described in Example 1, (150 mg .ident. 50 ppm) in Tween 60 (500 mg) had been dispersed. Both portions were subsequently smoked, chilled, sliced, and packaged normally. The samples were then analyzed for nitrite content. The amount of nitrite found just before frying was 75 ppm in the control sample and 73 ppm in the test sample.
Each sample of the bacon was then fried under standard frying conditions and the cook-out fat analyzed for volatile nitrosamines.

[4] = Control of nitrosamine formation in nitrite cured meat (general statements)
[5] = Stability of the compound; type: physicochemical

CCC1CC(C)(CC)Nc2ccc(OC)cc21 (stereo not shown) [1,2,3,4-tetrahydro-2,4-diethyl-2-methyl-6-methoxyquinoline]
Nitrosamines in cook-out fat, test product ([1]; Table II sample 1, 100 ppm in meat, control product 51 ppb): 2 ppb
Nitrosamines in cook-out fat, test product ([1]; Table II sample 2, 100 ppm in meat, control product 15 ppb): 0 ppb
nitrosamine content of the cook-out fat ([1]; each test sample of Table II, 100 ppm in meat, reduced below the accurately detectable level): < 3 ppb
nitrosamine content of the fried meat [1]: virtually free of such substances

CN(C)N=O [dimethylnitrosamine]
carcinogenicity in tests on experimental animals [2]: carcinogenic

O=NN1CCCC1 [N-nitrosopyrrolidine]
carcinogenicity in tests on experimental animals [2]: carcinogenic

CCOc1ccc2c(c1)C(C)CC(C)(C)N2 (stereo not shown) [1,2,3,4-tetrahydro-2,2,4-trimethyl-6-ethoxyquinoline]
Nitrosamines in cook-out fat, test product ([1]; Table I sample 1, 100 ppm in meat, control product 29 ppb): 0 ppb
Nitrosamines in cook-out fat, test product ([1]; Table I sample 2, 80 ppm in meat, control product 19 ppb): 2 ppb
Nitrosamines in cook-out fat, test product ([1]; Table I sample 3, 40 ppm in meat, control product 19 ppb): 3 ppb
Nitrosamines in cook-out fat, test product ([1]; Table I sample 4, 20 ppm in meat, control product 19 ppb): 1 ppb
Nitrosamines in cook-out fat, test product ([1]; Table I sample 5, 10 ppm in meat, control product 19 ppb): 0 ppb
Nitrosamines in cook-out fat, test product ([1]; Table I sample 6, 10 ppm in meat, control product 18 ppb): 2 ppb
Nitrosamines in cook-out fat, test product ([1]; Table I sample 7, 5 ppm in meat, control product 19 ppb): 5 ppb
Nitrosamines in cook-out fat, test product ([1]; Table I sample 8, 20 ppm in meat, control product 31 ppb): 0 ppb
Nitrosamines in cook-out fat, test product ([1]; Table I sample 9, 10 ppm in meat, control product 31 ppb): 10 ppb
Nitrosamines in cook-out fat, test product ([1]; Table I sample 10, 5 ppm in meat, control product 31 ppb): 22 ppb
Nitrosamines in cook-out fat, test product ([1]; Table I sample 11, 20 ppm in meat, control product 36 ppb): 5 ppb
Nitrosamines in cook-out fat, test product ([1]; Table I sample 12, 10 ppm in meat, control product 36 ppb): 8 ppb
Nitrosamines in cook-out fat, test product ([1]; Table I sample 13, 5 ppm in meat, control product 36 ppb): 6 ppb
Nitrosamines in cook-out fat, test product ([1]; Table I sample 14, 100 ppm in meat, control product 49 ppb): 1 ppb
Nitrosamines in cook-out fat, test product ([1]; Table I sample 15, 20 ppm in meat, control product 39 ppb): 3 ppb
Nitrosamines in cook-out fat, test product ([1]; Table I sample 16, 10 ppm in meat, control product 39 ppb): 15 ppb
Nitrosamines in cook-out fat, test product ([1]; Table I sample 17, 20 ppm in meat, control product 25 ppb): 2 ppb
Nitrosamines in cook-out fat, test product ([1]; Table I sample 18, 10 ppm in meat, control product 25 ppb): 4 ppb
nitrosamine content of the fried meat [1]: virtually eliminated
reduction in the amount of nitrosamines formed ([1]; lesser amounts (below about 20 ppm in meat)): significant reduction in the amount of nitrosamines formed, in some instances reducing the nitrosamines below the accurately detectable level
amount of nitrosamines in the cook-out fat ([1]; levels of about 20 ppm and greater in meat, reduced below the accurately determinable level (about 3 ppb)): below 3 ppb
volatile nitrosamines in cook-out fat of test sample [3]: did not show any detectable nitrosamine
effectiveness in the control of nitrosamines in nitrite cured meats, compared with ethoxyquin [4]: equally effective
stability at room temperature ([5]; crystalline solid, room temperature): quite stable at room temperature

CCOc1ccc2c(c1)C(CC)CC(C)(CC)N2 (stereo not shown) [1,2,3,4-tetrahydro-2,4-diethyl-2-methyl-6-ethoxyquinoline]
nitrosamine content of cook-out fat from the test sample [1]: zero

CCOc1ccc2c(c1)C(C)CC(C)(CC(C)C)N2 (stereo not shown) [1,2,3,4-tetrahydro-2,4-dimethyl-2-isobutyl-6-ethoxyquinoline]
nitrosamine content of cook-out fat from the test sample [1]: 0.6 ppb

CCOc1ccc2c(c1)C(C)=CC(C)(C)N2 [ethoxyquin, 1,2-dihydro-2,2,4-trimethyl-6-ethoxyquinoline, reference compound]
stability in the presence of air (darkening) ([5]; oily yellow liquid, presence of air): rather quickly turns dark in the presence of air

COc1ccc2c(c1)CCCN2 [1,2,3,4-tetrahydro-6-methoxyquinoline]
nitrosamine content of cook-out fat from the test sample [1]: 0.6 ppb
